For orientation: Ki means a measure of affinity in units of concentration, obtained from inhibition or displacement.

For this assay, the target named is T1, full length human recombinant glucocorticoid receptor (Homo sapiens, UniProt P04150).
T1 construct: It contains some partially purified full length human recombinant glucocorticoid receptor; purchased Panvera/Invitrogen PV4302
T1 sequence (P04150 1-777): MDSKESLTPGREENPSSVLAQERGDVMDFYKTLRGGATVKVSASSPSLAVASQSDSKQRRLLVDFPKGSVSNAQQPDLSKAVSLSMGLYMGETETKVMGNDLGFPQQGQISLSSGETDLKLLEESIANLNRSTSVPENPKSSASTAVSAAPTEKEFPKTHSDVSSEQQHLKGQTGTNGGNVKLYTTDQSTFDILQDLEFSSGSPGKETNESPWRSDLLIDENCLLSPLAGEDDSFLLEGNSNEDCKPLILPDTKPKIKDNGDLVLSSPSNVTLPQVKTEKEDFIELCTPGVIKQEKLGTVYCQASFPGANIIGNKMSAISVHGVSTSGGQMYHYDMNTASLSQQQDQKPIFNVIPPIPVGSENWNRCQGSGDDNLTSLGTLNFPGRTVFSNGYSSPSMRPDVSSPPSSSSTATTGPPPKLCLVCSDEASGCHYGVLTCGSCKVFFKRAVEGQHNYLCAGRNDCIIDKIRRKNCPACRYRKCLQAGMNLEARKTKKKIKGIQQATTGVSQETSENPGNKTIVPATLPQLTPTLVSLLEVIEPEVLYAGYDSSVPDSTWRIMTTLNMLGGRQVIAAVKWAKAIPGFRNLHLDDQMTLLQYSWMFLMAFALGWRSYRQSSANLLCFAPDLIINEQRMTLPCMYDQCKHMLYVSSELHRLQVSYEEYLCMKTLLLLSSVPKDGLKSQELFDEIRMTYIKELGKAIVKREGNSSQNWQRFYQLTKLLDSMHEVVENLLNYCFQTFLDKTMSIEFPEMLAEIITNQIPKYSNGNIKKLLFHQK
Description: Glucocorticoid Receptor Binding Assay (Glucocorticoid Receptor Competitor Assay far red kit, fluorescence polarization). The following applies: competition with fluorescent GR ligand Fluormone GS Far Red, 3 hours at 22° C., pH 7.4; Ki calculated from IC50 by Cheng-Prusoff. The gist of the method: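 Compounds in serial dilution (from intermediate 4.2% DMSO stock) displace Fluormone GS Far Red from full-length human recombinant GR with stabilizing peptide, pH 7.4, incubated 3 hours at 22° C dark. Polarized fluorescence (610–660 nm) gives IC50 via sigmoidal fit, converted to Ki by Cheng-Prusoff.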
Turning to `C[C@@H](c1ccc(-c2ccc(CCC(=O)O)cc2)cc1Cl)[C@](O)(c1ccc2c(c1)N(C)C(=O)CO2)C(F)(F)F` (relative stereo) [Example 29, 3-{3′-Chloro-4′-[3,3,3-trifluoro-2-hydroxy-1-methyl-2-(4-methyl-3-oxo-3,4-dihydro-2H-benzo[1,4]oxazin-6-yl)-propyl]-biphenyl-4-yl}-propionic acid], the Ki was 7.5 nM.

Turning to `CCOC(=O)C(C)(C)Oc1ccc([C@@H](C)[C@@](O)(c2ccc3oc(=O)n(C)c3c2)C(F)(F)F)c(Cl)c1` (stereo in doubt) [Example 229, 2-{3-Chloro-4-[3,3,3-trifluoro-2-hydroxy-1-methyl-2-(3-methyl-2-oxo-2,3-dihydro-benzooxazol-5-yl)-propyl]-phenoxy}-2-methyl-propionic acid ethyl ester], the Ki was 3.9 nM.

On to `COC(=O)c1ccc(Oc2ccc(Cl)c([C@H](C)[C@](O)(c3ccc4c(c3)N(C)C(=O)CO4)C(F)(F)F)c2)cc1F` (relative stereo) [Example 13, 4-{4-Chloro-3-[3,3,3-trifluoro-2-hydroxy-1-methyl-2-(4-methyl-3-oxo-3,4-dihydro-2H-benzo[1,4]oxazin-6-yl)-propyl]-phenoxy}-2-fluoro-benzoic acid methyl ester], for which the Ki is 5.4 nM.

For the molecule `C[C@H](c1ccc(-c2ccnnc2)cc1Cl)[C@@](O)(c1ccc2oc(=O)n(C)c2c1)C(F)(F)F` (stereo in doubt) [Example 195, 5-[2-(2-Chloro-4-pyridazin-4-yl-phenyl)-1-hydroxy-1-trifluoromethyl-propyl]-3-methyl-3H-benzooxazol-2-one], the Ki is 0.8 nM.

For the molecule `C[C@H](c1ccc(Oc2cnc(C(=O)O)cn2)cc1Cl)[C@@](O)(c1ccc2c(c1)n(C)c(=O)n2C)C(F)(F)F` (relative stereo) [Example 106, 5-{3-Chloro-4-[2-(1,3-dimethyl-2-oxo-2,3-dihydro-1H-benzoimidazol-5-yl)-3,3,3-trifluoro-2-hydroxy-1-methyl-propyl]-phenoxy}-pyrazine-2-carboxylic acid], the Ki is 5.2 nM.

Take `C[C@H](c1ccc(Oc2ccc(C(=O)O)c(C(F)(F)F)c2)cc1Cl)[C@@](O)(c1ccc2c(c1)N(C)C(=O)CO2)C(F)(F)F` (racemic) [Example 220, 4-{3-Chloro-4-[3,3,3-trifluoro-2-hydroxy-1-methyl-2-(4-methyl-3-oxo-3,4-dihydro-2H-benzo[1,4]oxazin-6-yl)-propyl]-phenoxy}-2-trifluoromethyl-benzoic acid]: the Ki was 1.1 nM.

On to `C[C@H](c1ccc(-c2ccc(C(=O)O)c(F)c2)cc1C(F)(F)F)[C@@](O)(c1ccc2oc(=O)n(C)c2c1)C(F)(F)F` (stereo in doubt) [Example 200, 3-Fluoro-4′-[3,3,3-trifluoro-2-hydroxy-1-methyl-2-(3-methyl-2-oxo-2,3-dihydro-benzooxazol-5-yl)-propyl]-3′-trifluoromethyl-biphenyl-4-carboxylic acid], for which the Ki was 4.5 nM.

Take `CCN1C(=O)COc2ccc([C@](O)([C@H](C)c3ccc(Oc4cc(C(F)(F)F)c(C(=O)O)cn4)cc3Cl)C(F)(F)F)cc21` (relative stereo) [Example 68, 6-{3-Chloro-4-[2-(4-ethyl-3-oxo-3,4-dihydro-2H-benzo[1,4]oxazin-6-yl)-3,3,3-trifluoro-2-hydroxy-1-methyl-propyl]-phenoxy}-4-trifluoromethyl-nicotinic acid]: the Ki was 59.8 nM.

Regarding `C[C@@H](c1ccc(Oc2ccc(C(=O)O)c(F)c2)cc1Cl)[C@](O)(c1ccc2c(c1)n(C)c(=O)n2C)C(F)(F)F` (stereo in doubt) [Example 88, 4-{3-Chloro-4-[2-(1,3-dimethyl-2-oxo-2,3-dihydro-1H-benzoimidazol-5-yl)-3,3,3-trifluoro-2-hydroxy-1-methyl-propyl]-phenoxy}-2-fluoro-benzoic acid], the Ki was 0.7 nM.

Take `CCN1C(=O)COc2ccc([C@](O)([C@H](C)c3ccc(-c4ccc(F)c(C(=O)O)c4)cc3Cl)C(F)(F)F)cc21` (relative stereo) [Example 67, 3′-Chloro-4′-[2-(4-ethyl-3-oxo-3,4-dihydro-2H-benzo[1,4]oxazin-6-yl)-3,3,3-trifluoro-2-hydroxy-1-methyl-propyl]-4-fluoro-biphenyl-3-carboxylic acid]: the Ki was 40.2 nM.

Turning to `C[C@H](c1ccc(Oc2ccc(C(=O)O)c(Cl)c2)cc1Cl)[C@](O)(c1ccc2c(c1)OCO2)C(F)(F)F` (relative stereo) [Example 103, 4-[4-(2-Benzo[1,3]dioxol-5-yl-3,3,3-trifluoro-2-hydroxy-1-methyl-propyl)-3-chloro-phenoxy]-2-chloro-benzoic acid], the Ki is 23.1 nM.

For the molecule `COC(=O)c1ccc(-c2ccc([C@H](C)[C@](O)(c3ccc4c(c3)N(C)C(=O)CO4)C(F)(F)F)c(Cl)c2)c(F)c1` (relative stereo) [Example 33, 3′-Chloro-2-fluoro-4′-[3,3,3-trifluoro-2-hydroxy-1-methyl-2-(4-methyl-3-oxo-3,4-dihydro-2H-benzo[1,4]oxazin-6-yl)-propyl]-biphenyl-4-carboxylic acid methyl ester], the Ki is 17.3 nM.

As to `C[C@H](c1ccc(Oc2ccc(F)c(C(=O)O)c2)cc1Cl)[C@@](O)(c1ccc2c(c1)OCC(=O)N2C)C(F)(F)F` (relative stereo) [Example 167, 5-{3-Chloro-4-[3,3,3-trifluoro-2-hydroxy-1-methyl-2-(4-methyl-3-oxo-3,4-dihydro-2H-benzo[1,4]oxazin-7-yl)-propyl]phenoxy}-2-fluoro-benzoic acid], the Ki is 3.1 nM.

`C[C@H](c1ccc(-c2ccc(C(=O)O)c(F)c2)cc1Cl)[C@@](O)(c1ccc2c(c1)N(C)C(=O)C(C)(C)O2)C(F)(F)F` (relative stereo) [Example 168, 3′-Chloro-3-fluoro-4′-[3,3,3-trifluoro-2-hydroxy-1-methyl-2-(2,2,4-trimethyl-3-oxo-3,4-dihydro-2H-benzo[1,4]oxazin-6-yl)-propyl]-biphenyl-4-carboxylic acid]: the Ki was 609 nM.

As to `CC(c1ccc(Oc2ccc(C(=O)O)c(Cl)c2)cc1Cl)C(O)(c1ccc(C#N)cc1)C(F)(F)F` (centres unmarked) [Example 156, 2-Chloro-4-{3-chloro-4-[2-(4-cyano-phenyl)-3,3,3-trifluoro-2-hydroxy-1-methyl-propyl]-phenoxy}-benzoic acid], the Ki was 192 nM.

Regarding `C[C@H](c1ccc(Br)cc1Cl)[C@@](O)(c1ccc2c(c1)oc(=O)n2C)C(F)(F)F` (relative stereo) [Example 133, 6-[2-(4-Bromo-2-chloro-phenyl)-1-hydroxy-1-trifluoromethyl-propyl]-3-methyl-3H-benzooxazol-2-one], the Ki is 1.6 nM.

As for `C[C@@H](c1ccc(Oc2ccc(C(=O)O)c(Cl)c2)cc1Cl)[C@](O)(c1cc2c(cc1F)OCC(=O)N2C)C(F)(F)F` (stereo in doubt) [Example 139, 2-Chloro-4-{3-chloro-4-[3,3,3-trifluoro-2-(7-fluoro-4-methyl-3-oxo-3,4-dihydro-2H-benzo[1,4]oxazin-6-yl)-2-hydroxy-1-methyl-propyl]-phenoxy}-benzoic acid], the Ki is 2.7 nM.

These data come from US8450313B2, “2,3-diaryl- or heteroaryl-substituted 1,1,1-trifluoro-2-hydroxypropyl compounds” (Hoffmann-La Roche Inc., priority 2009, dated 2013).
